# Data published in patent US8492409B2, “1-substituted pyridyl-pyrazolyl amide compounds and uses thereof” (Sinochem Corporation, priority 2008, dated 2013).
# Read-outs that look alike come from different tables or passages of the source.
# Key:
# [1] = system: beet armyworm (Laphygma exigua Hubner); experiment: Test against beet armyworm (leaf disc spray); format: in vivo; details: Spodoptera exigua, foliar, 96 h, after 96 h; for mortality at 10 ppm / mortality at 1 ppm: third instar; for mortality at 0.3 ppm / mortality at 0.6 ppm: parallel test
# Experimental: (§1) According to the solubility of test compounds, the compounds are dissolved in acetone or dimethyl sulfoxide, and then diluted with 0.1% aqueous solution of Tween 80 to form 50 ml test liquid, the content of acetone or dimethyl sulfoxide in the total solution is not more than 10%.
# The cabbage leaves were perforated to get 1 cm diameter leaf discs by the hole puncher. Certain concentrations of test compounds were sprayed on both sides of the discs at the spray volume of 0.5 ml by Airbrush. Eight test insects (third instar) were introduced on each treatment after drying. Each treatment repeated 3 times. The treated discs were placed in a chamber of 24° C., 60%-70% relative humidity, no light. After 96 h, the number of surviving insects was investigated and the mortality was calculated.
# [2] = system: cucumber anthracnose (Colletotrichum lagenarium, CA); experiment: Fungicidal activity test against cucumber anthracnose in vivo; details: 400 ppm spray on potted cucumber seedlings; visual assessment after 5 days
# [3] = system: tomato late blight (Phytophthora infestans); experiment: microbe, parasite or virus in culture; format: cell-based; details: 240 h, read-out: control efficiency against tomato late blight (rate of fungi inhibition)
# [4] = system: army worm (Mythimna separata); experiment: Test against army worm (corn leaf dip); format: in vivo; details: foliar, third instar, after 72 h
# Experimental: as §1
# The middle part of fresh corn leaves were chosen and cut into 3 cm sects. The sects were dipped into the solution of certain concentration of test compounds for 10 seconds, dried and placed in 9 cm diameter Petri dish. Eight regular health insects (third instar) were introduced on each treatment. Each treatment was repeated for 4 times. The pure water was set as CK. The treated discs were placed in a chamber of 24° C., 60%-70% relative humidity and day light. After 72 h, the number of surviving insects was investigated and the mortality rates were calculated.
# [5] = system: striped stem borer (Chilo suppressalis (Walker)); experiment: Test against striped stem borer (artificial feed film); format: in vivo
# Experimental: as §1
# The 6 well culture plates were chosen, 5 mL artificial feed was added into each well. After the feed solidified, 0.2 mL solution of certain concentrations of test compounds was added into per well with a continuous sampler and made the uniform film in the feed surface. Eight regular health insects (second instar) were introduced on each treatment after drying. Each treatment was repeated for 4 times. The pure water was set as CK. The treated discs were placed in a chamber of 24° C., 60%-70% relative humidity and day light. After 72 h, the number of surviving insects was investigated and the mortality was calculated.
# [6] = system: Diamondback moth (Plutella xylostella); experiment: Test against diamondback moth (cabbage leaf disc dip); format: in vivo; details: foliar, third instar, after 72 h
# Experimental: as §1
# The leaves of cabbage grown in greenhouse were chosen, removed the surface waxy layer and perforated to get 2 cm diameter leaf discs by the hole puncher. The discs were dipped in a solution of certain concentrations of test compounds for 10 seconds, dried and placed in 9 cm diameter Petri dish. Eight regular health insects (third instar) were introduced on each treatment. Each treatment was repeated for 4 times. The pure water was set as CK. The treated discs were placed in a chamber of 24° C., 60%-70% relative humidity and day light. After 72 h, the number of surviving insects was investigated and the mortality was calculated.
# [7] = system: rice leaf folder (Cnaphalocrocis medinalis Guenee); experiment: Field test against rice leaf folder; format: in vivo; details: 168 h, spray 450 L/ha, after 7 d
# Experimental: A certain concentrations of test compounds were sprayed on leaves at the time of hatching peak of rice leaf folder. Spay volume was 450 L/ha. The section area of rice was 32 m^2. Each treatment was repeated for 3 times. After 7d, the number of surviving insects was investigated and the mortality was calculated.
# [8] = system: armyworm (Mythimna seperata); details: 50 ppm; cited from earlier work
# [9] = system: fall armyworm (Spodoptera frugiperda); details: 10 ppm; cited from earlier work
# [10] = 10 ppm, read-out: mortality against beet armyworm
# [11] = 0.3 ppm, Table 3, read-out: Mortality (%) against beet armyworm
# [12] = parallel test, Table 5, after 72 h
smiles,measurement,setting,value
CNC(=O)c1cc(Cl)cc(C)c1NC(=O)c1cc(C)nn1-c1ncc(Cl)cc1Cl [Compound 1],mortality at 10 ppm,"[1]; read-out: mortality against beet armyworm, 10 ppm",≥ 90%
same,protective controlling effect against cucumber anthracnose,[2],more than 90%
same,inhibition at 25 ppm,[3],> 90%
CNC(=O)c1cc(Cl)cc(C)c1NC(=O)c1cc(C(F)(F)F)nn1-c1ncc(Cl)cc1Cl [Compound 3],mortality at 1 ppm,[1],≥ 90%
same,mortality at 10 ppm,[1]; [10],≥ 90%
Cc1cc(Cl)cc(C(N)=O)c1NC(=O)c1cc(Br)nn1-c1ncc(Cl)cc1Cl [Compound 15],mortality at 10 ppm,[1]; [10],≥ 90%
CNC(=O)c1cc(Cl)cc(C)c1NC(=O)c1cc(Br)nn1-c1ncc(Cl)cc1Cl [Compound 18],mortality at 0.4 ppm,[4],≥ 90%
same,mortality at 10 ppm,"[5]; second instar, after 72 h",≥ 90%
same,mortality at 0.3 ppm,[1]; [11],50%
same,mortality at 0.3 ppm,"[1]; 0.3 ppm, Table 4, read-out: Mortality (%) against beet armyworm",62%
same,mortality at 0.6 ppm,"[1]; 0.6 ppm, Table 4, read-out: Mortality (%) against beet armyworm",100%
same,mortality at 1 ppm,[1],≥ 90%
same,mortality at 10 ppm,[1]; [10],≥ 90%
CNC(=O)c1cc(Cl)cc(Cl)c1NC(=O)c1cc(Br)nn1-c1ncc(Cl)cc1Cl [Compound 19],mortality at 0.8 ppm,[6],> 90%
same,mortality at 0.4 ppm,[4],≥ 90%
same,mortality at 5 ppm,[5]; [12],90%
same,mortality at 10 ppm,[5]; [12],100%
same,mortality at 10 ppm,"[5]; second instar, after 72 h",≥ 90%
same,mortality at 0.3 ppm,[1]; [11],87.5%
same,mortality at 1 ppm,[1],≥ 90%
same,mortality at 10 ppm,[1]; [10],≥ 90%
same,mortality at 30 g/ha,[7],56%
same,mortality at 60 g/ha,[7],63%
CCNC(=O)c1cc(Cl)cc(C)c1NC(=O)c1cc(Br)nn1-c1ncc(Cl)cc1Cl [Compound 22],mortality at 1 ppm,[1],≥ 90%
same,mortality at 10 ppm,[1]; [10],≥ 90%
"CNC(=O)c1cc(Cl)cc(C)c1NC(=O)c1cc(Br)nn1-c1ncc(Br)cc1Cl [KC1, reference compound]",mortality at 0.3 ppm,"[1]; read-out: Mortality (%) against beet armyworm, 0.3 ppm, Table 3",0%
same,mortality at 0.3 ppm,"[1]; read-out: Mortality (%) against beet armyworm, 0.3 ppm, Table 4",12.5%
same,mortality at 0.6 ppm,"[1]; read-out: Mortality (%) against beet armyworm, 0.6 ppm, Table 4",75.5%
same,insecticidal activity against armyworm,[8],highly effective
"CNC(=O)c1cc(Cl)cc(C)c1NC(=O)c1cc(Br)nn1-c1ncccc1Cl [KC2, chlorantraniliprole, reference compound]",mortality at 5 ppm,[5]; [12],60%
same,mortality at 10 ppm,[5]; [12],90%
same,insecticidal activity against fall armyworm,[9],highly effective
same,mortality at 30 g/ha,[7],34%
same,mortality at 60 g/ha,[7],52%
